From US11634393B2, “Substituted tolyl fungicides” (FMC CORPORATION, priority 2018, dated 2023) come the findings set out here.

In data set [1] the test system is Zymoseptoria tritici. In words: Test A: wheat leaf blotch, spray on wheat seedlings, disease control rating. It is filed as in vivo. The settings on record: 100 = 100% disease control, 0 = no disease control relative to the controls; for pest or weed control at 10 ppm: Rate 10 ppm; for pest or weed control at 250 ppm: Rate 250 ppm. From the text:
(§1) General protocol for preparing test suspensions for Tests A-F: the test compounds were first dissolved in acetone in an amount equal to 3% of the final volume and then suspended at the desired concentration (in ppm) in acetone and purified water (50/50 mix by volume) containing 250 ppm of the surfactant PEG400 (polyhydric alcohol esters). The resulting test suspensions were then used in Tests A-F.
The test solution was sprayed to the point of run-off on wheat seedlings. The following day the seedlings were inoculated with a spore suspension of Zymoseptoria tritici (the causal agent of wheat leaf blotch) and incubated in a saturated atmosphere at 24° C. for 48 h, and then moved to a growth chamber at 20° C. for 17 days, after which time disease ratings were made.
(§2) A rating of 100 indicates 100% disease control and a rating of 0 indicates no disease control (relative to the controls). A dash (-) indicates the compound was not tested.

Data set [2] relates to Botrytis cinerea. The experiment in a line: Test E: tomato Botrytis, spray on tomato seedlings, disease control rating. It is filed as in vivo. The conditions noted are these: 100 = 100% disease control, 0 = no disease control relative to the controls; for pest or weed control at 10 ppm: Rate 10 ppm; for pest or weed control at 250 ppm: Rate 250 ppm.
Description: as §1
The test suspension was sprayed to the point of run-off on tomato seedlings. The following day the seedlings were inoculated with a spore suspension of Botrytis cinerea (the causal agent of tomato Botrytis) and incubated in a saturated atmosphere at 20° C. for 48 h, and then moved to a growth chamber at 24° C. for 3 days, after which time visual disease ratings were made.
as §2

For data set [3], the system named is Puccinia recondita f. sp. tritici. In words: Test B: wheat leaf rust, spray on wheat seedlings, disease control rating. The class given is in vivo. The settings on record: Puccinia recondita, 192 h, 100 = 100% disease control, 0 = no disease control relative to the controls; for pest or weed control at 10 ppm: Rate 10 ppm; for pest or weed control at 250 ppm: Rate 250 ppm. Put shortly: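 Compound in acetone (3% of final volume) was suspended at the stated ppm in acetone/water 50/50 with 250 ppm PEG400 and sprayed to run-off on wheat seedlings. Puccinia recondita spores were inoculated next day, then 24 h saturated atmosphere at 20 °C and 7 days at 20 °C. Rated 0–100% disease control versus controls.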

Data set [4] deals with Blumeria graminis f. sp. tritici. In words: Test C: wheat powdery mildew, spray on wheat seedlings, disease control rating. It is filed as in vivo. The settings on record: 192 h, 100 = 100% disease control, 0 = no disease control relative to the controls; for pest or weed control at 10 ppm: Rate 10 ppm; for pest or weed control at 250 ppm: Rate 250 ppm.
Description: as §1
The test suspension was sprayed to the point of run-off on wheat seedlings. The following day the seedlings were inoculated with a spore dust of Blumeria graminis f. sp. tritici, (also known as Erysiphe graminis f. sp. tritici, the causal agent of wheat powdery mildew) and incubated in a growth chamber at 20° C. for 8 days, after which time visual disease ratings were made.
as §2

Data set [5] has as its system Phakopsora pachyrhizi. The experiment in a line: Test D: Asian soybean rust, spray on soybean seedlings, disease control rating. It is filed as in vivo. The settings on record: Phakopsora pachyrhizi, 216 h, 100 = 100% disease control, 0 = no disease control relative to the controls; for pest or weed control at 10 ppm: Rate 10 ppm; for pest or weed control at 250 ppm: Rate 250 ppm. In a few lines:
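Soybean seedlings sprayed to run-off with compound suspension (ppm, in 50/50 acetone/water with 250 ppm PEG400), inoculated next day with P. pachyrhizi spores, held 24 h saturated at 22°C then 8 days at 22°C. Visual rating 0-100% disease control relative to controls.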

Each structure is given as a SMILES string.

As usually defined, the pest or weed control is the degree to which the test organism was suppressed or injured, in per cent. A lower pest or weed control goes with weak suppression. With `COC(=O)NCc1cc(-c2ccn(-c3c(F)cc([N+](=O)[O-])cc3F)n2)ccc1C` [Compound 1, methyl N-[[5-[1-(2,6-difluoro-4-nitrophenyl)-1H-pyrazol-3-yl]-2-methylphenyl]methyl]carbamate], the pest or weed control at 10 ppm in data set [1] is 0%; in data set [2], 0%; in data set [3], 68%; in data set [4], 0%; in data set [5] it was 44%.
The term melting point denotes the temperature, or range, at which the solid turns liquid. In the case of `COC(=O)NCc1cc(-c2cc(C)n(-c3c(F)cccc3F)n2)ccc1C` [Compound 100], the melting point was in the range of 125 to 129 °C. In data set [3], this compound returned a pest or weed control at 10 ppm of 0%. This compound gave a pest or weed control at 10 ppm in data set [5] of 0%.
In turn, `COC(=O)NCc1cc(-c2ccn(-c3c(F)cccc3F)n2)ccc1C` [Compound 4, methyl N-[[5-[1-(2,6-difluorophenyl)-1H-pyrazol-3-yl]-2-methylphenyl]-methyl]carbamate] registered a melting point of 142 to 143 °C. The pest or weed control at 10 ppm in data set [3] turned out to be 90%. The compound further showed a pest or weed control at 10 ppm in data set [5] of 100%.
`COC(=O)NCc1cc(-c2cn(-c3c(F)cc(C)cc3F)nn2)ccc1C` [Compound 119]: the melting point lay within 143 to 147 °C. Moreover, the pest or weed control at 10 ppm in data set [3] was found to be 100%. In data set [5], this compound registered a pest or weed control at 10 ppm of 0%.
Take `COC(=O)NCc1cc(-c2ccn(-c3c(F)cc(OC)cc3F)n2)ccc1C` [Compound 3, methyl N-[[5-[1-(2,6-difluoro-4-methoxyphenyl)-1H-pyrazol-3-yl]-2-methylphenyl]methyl]carbamate]: the pest or weed control at 10 ppm in data set [1] was 50%; in data set [2] it was 45%; in data set [3], 100%; in data set [4], 79%; in data set [5], 100%.
Compound `COC(=O)NCc1cc(-c2cn(-c3c(Br)cc(OC)cc3[N+](=O)[O-])nn2)ccc1C` [Compound 129] returned a melting point of 158 to 162 °C. The compound also returned a pest or weed control at 10 ppm in data set [3] of 0%. In addition, the pest or weed control at 10 ppm in data set [5] came to 0%.
In turn, `COC(=O)NCc1cc(-c2cc(C)n(-c3c(Cl)cccc3Cl)n2)ccc1C` [Compound 101] displayed a melting point of 146 to 150 °C. Further, the pest or weed control at 10 ppm in data set [3] is 0%. In data set [5], this compound showed a pest or weed control at 10 ppm of 0%.
With `COC(=O)NCc1cc(-c2cn(-c3c(C)cc(OC)cc3C)nn2)ccc1C` [Compound 124], the melting point is 110 to 114 °C. This compound also registered a pest or weed control at 10 ppm in data set [3] of 0%. In data set [5], the pest or weed control at 10 ppm was 0%.
With `COC(=O)NCc1cc(-c2cn(-c3c(F)cc(F)cc3Cl)nn2)ccc1C` [Compound 122], the melting point was in the range of 125 to 129 °C. In data set [1], this compound gave a pest or weed control at 250 ppm of 71%. Also, in data set [2], the pest or weed control at 250 ppm came out at 0%. The pest or weed control at 250 ppm in data set [3] amounted to 99%. This compound also had a pest or weed control at 250 ppm in data set [4] of 0%. Moreover, the pest or weed control at 250 ppm in data set [5] amounted to 100%.
The compound `COC(=O)NCc1cc(-c2ccn(-c3c(F)cc(C#N)cc3F)n2)ccc1C` [Compound 2] came in with a melting point of 171 to 174 °C. The compound further yielded a pest or weed control at 10 ppm in data set [1] of 13%. Moreover, the pest or weed control at 10 ppm in data set [2] was determined as 0%. Besides, in data set [3], the pest or weed control at 10 ppm worked out at 68%. The pest or weed control at 10 ppm in data set [4] stood at 0%. The pest or weed control at 10 ppm in data set [5] was 100%.
The compound `COC(=O)NCc1cc(-c2cn(-c3c(F)cc(Br)cc3F)nn2)ccc1C` [Compound 126] registered a melting point of 160 to 164 °C. Also, the pest or weed control at 10 ppm in data set [3] amounted to 57%. In addition, the pest or weed control at 10 ppm in data set [5] stood at 0%.
With `COC(=O)NCc1cc(-c2ccn(-c3c(F)cc(OC4CC4)cc3F)n2)ccc1C` [Compound 66, methyl N-[[5-[1-[4-(cyclopropyloxy)-2,6-difluorophenyl]-1H-pyrazol-3-yl]-2-methylphenyl]methyl]carbamate], the melting point lay in the range of 124 to 128 °C. The compound further showed a pest or weed control at 10 ppm in data set [3] of 100%. In data set [5], this compound yielded a pest or weed control at 10 ppm of 100%.
With `COC(=O)NCc1cc(-c2ccn(-c3c(F)cc(OC(F)F)cc3F)n2)ccc1C` [Compound 15, methyl N-[[5-[1-[4-(difluoromethoxy)-2,6-difluorophenyl]-1H-pyrazol-3-yl]-2-methylphenyl]methyl]carbamate], the melting point fell in the range of 102 to 103 °C. Moreover, in data set [1], the pest or weed control at 10 ppm is 0%. The compound also had a pest or weed control at 10 ppm in data set [2] of 0%. The pest or weed control at 10 ppm in data set [3] worked out at 99%. In data set [4], this compound showed a pest or weed control at 10 ppm of 69%. The pest or weed control at 10 ppm in data set [5] turned out to be 100%.
Consider `COC(=O)NCc1cc(-c2ccn(-c3c(F)cc(C(C)C)cc3F)n2)ccc1C` [Compound 63, methyl N-[[5-[1-[2,6-difluoro-4-(1-methylethyl)phenyl]-1H-pyrazol-3-yl]-2-methylphenyl]methyl]carbamate], for which the pest or weed control at 10 ppm is 26% in data set [1]; 0% in data set [2]; 100% in data set [3]; 98% in data set [4]; 100% in data set [5].
`COC(=O)NCc1cc(-c2cnn(-c3c(F)cc([N+](=O)[O-])cc3F)n2)ccc1C` [Compound 118, methyl N-[[5-[2-(2,6-difluoro-4-nitrophenyl)-2H-1,2,3-triazol-4-yl]-2-methylphenyl]methyl]carbamate]: the pest or weed control at 250 ppm in data set [1] was 1%; in data set [2], 0%; in data set [3] it was 0%; in data set [4], 0%; in data set [5] it was 0%.
The compound `COC(=O)NCc1cc(-c2cn(-c3c(Cl)cc(OC)cc3OC)nn2)ccc1C` [Compound 120] showed a melting point of 145 to 148 °C. This compound also had a pest or weed control at 10 ppm in data set [3] of 0%. Moreover, in data set [5], the pest or weed control at 10 ppm turned out to be 0%.
`COC(=O)NCc1cc(-c2cnn(-c3c(F)cc(Br)cc3F)n2)ccc1C` [Compound 114] yielded a melting point of 136 to 140 °C. This compound also gave a pest or weed control at 10 ppm in data set [3] of 100%. This compound returned a pest or weed control at 10 ppm in data set [5] of 100%.
`COC(=O)NCc1cc(-c2ncn(-c3c(F)cc(C(F)(F)F)cc3F)n2)ccc1C` [Compound 103]: the melting point fell in the range of 168 to 172 °C. The pest or weed control at 10 ppm in data set [3] worked out at 100%. In data set [5], this compound had a pest or weed control at 10 ppm of 86%.
In the same order, the values of `COC(=O)NCc1cc(-c2ccn(-c3c(F)cc(OC4CCC4)cc3F)n2)ccc1C` [Compound 13, methyl N-[[5-[1-[4-(cyclobutyloxy)-2,6-difluorophenyl]-1H-pyrazol-3-yl]-2-methylphenyl]methyl]carbamate] are 126 to 128 °C, 100% and 100%.
The compound `COC(=O)NCc1cc(-c2cn(-c3c(F)cc(I)cc3F)nn2)ccc1C` [Compound 125] yielded a melting point of 166 to 170 °C. In data set [3], this compound returned a pest or weed control at 10 ppm of 68%. In data set [5], this compound showed a pest or weed control at 10 ppm of 0%.
Turning to `COC(=O)NCc1cc(-c2cn(-c3c(Cl)cc(OC)cc3Cl)nn2)ccc1C` [Compound 123], the melting point was in the range of 148 to 152 °C. The same compound returned a pest or weed control at 10 ppm in data set [3] of 0%. For the same compound, the pest or weed control at 10 ppm in data set [5] is 0%.
As to `COC(=O)NCc1cc(-c2ncn(-c3c(F)cc(Br)cc3F)n2)ccc1C` [Compound 104], the melting point was 175 to 179 °C. Besides, the pest or weed control at 10 ppm in data set [3] stood at 100%. Besides, the pest or weed control at 10 ppm in data set [5] was determined as 90%.
For `COC(=O)NCc1cc(-c2cc(C)n(-c3c(F)cc(OC)cc3F)n2)ccc1C` [Compound 102], in that order: 128 to 132 °C, 0% and 0%.
